Assay results reported in ChEMBL document CHEMBL3352007, “Deoxyribonuclease inhibitors” (Eur J Med Chem, 2014).

Assays:
Deoxyribonuclease-1 [1] = biological target: T1, Deoxyribonuclease-1 (Homo sapiens, UniProt P24855); assay: Inhibition of DNase 1 (unknown origin) using (FAM)-labeled dsDNA as substrate
T1 sequence (P24855 whole entry): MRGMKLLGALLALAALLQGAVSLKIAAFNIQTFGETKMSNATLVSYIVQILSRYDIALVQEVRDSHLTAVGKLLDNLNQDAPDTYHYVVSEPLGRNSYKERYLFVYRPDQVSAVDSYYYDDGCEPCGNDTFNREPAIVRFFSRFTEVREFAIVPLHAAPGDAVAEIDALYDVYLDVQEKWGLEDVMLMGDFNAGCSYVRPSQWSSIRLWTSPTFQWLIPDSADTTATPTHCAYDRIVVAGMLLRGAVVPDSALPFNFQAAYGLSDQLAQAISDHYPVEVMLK

Deoxyribonuclease-1 [2] = biological target: T1, Deoxyribonuclease-1; assay: Inhibition of DNase 1 (unknown origin)

| SMILES | IC50 (Deoxyribonuclease-1 [1]) [nM] | IC50 (Deoxyribonuclease-1 [2]) [nM] |
| --- | --- | --- |
| CN(C)c1ccc(C(=C2C=CC(=[N+](C)C)C=C2)c2ccc(N(C)C)cc2)cc1 [GENTIAN VIOLET] | 350 | – |
| O=C(O)c1ccc(Nc2nc(Cl)nc(Cl)n2)cc1-c1c2ccc(=O)cc-2oc2cc(O)ccc12 | – | > 300000 |
